Laboratory results from patent US20150133390A1, “Identification of New Therapeutic Uses for Known Therapeutic Agents” (The Board of Trustees of the Leland Stanford Junior …, priority 2012, published 2015).
Entries after “also recorded” stand apart in the source; their conditions may differ.

Experiments:
[1] = test system: FVB donor hearts implanted into C57BL/6 WT mice (cardiac allograft); assay: Graft survival in murine heterotopic cardiac transplant model of acute rejection; type: in vivo, mouse; details: for allograft survival compared to untreated AR / Median survival: FVB-to-C57BL/6 cardiac transplant; for allograft survival compared to untreated AR: 6 pairs per group; for Median survival: atorvastatin 75 and dasatinib 25 mg/kg/day oral gavage, cyclosporine 20 mg/kg/day i.p., followed to POD 30, untreated AR 10 days
Experimental: (§1) FVB donor hearts were implanted into the abdomen of C57BL/6 WT mice representing a complete MHC mismatch, as described previously. […] Animal activity, body weight and graft viability (abdominal palpation) were assessed daily.
(§2) Before oral gavages of Atorvastatin and Dasatinib, aliquots were mixed thoroughly. Unused formulations were discarded. Treatment started the day prior to transplantation and lasted until the day before sacrifice at post operation day 7 by exsanguination. Grafts were harvested and divided into three equal parts for downstream analyses.
Graft viability (abdominal palpation) were assessed daily for these animals until post operation day 30.

[2] = test system: graft infiltrating cells in cardiac allograft; assay: Graft histology / immunohistochemistry of infiltrating cells at POD 7; type: in vivo, mouse; details: for number of infiltrating cells (immunohistochemistry): POD 7, compared to untreated AR
Experimental: as §1, §2
One third of the explanted allograft heart (POD7) was immediately fixed in […] buffered formalin, embedded in paraffin and subsequently stained with hematoxylin and eosin for histological assessment of tissue according to standard protocols. Pictures of the graft tissue were taken at 10× magnification using a Nikon E600 light microscope (Nikon Instruments Inc., Melville, N.Y.) and Spot V4.6 imaging software (Spot Imaging, Sterling Heights, Mich.).

[3] = test system: infiltrating cell subsets in cardiac allografts; assay: Flow cytometry count of infiltrating cell subsets in cardiac allografts; type: in vivo, mouse; details: for number of infiltrating B220+ B cells compared to cyclosporine: POD 7, compared to cyclosporine group; for number of CD45+ infiltrating cells / number of infiltrating B220+ B cells / number of infiltrating CD4+ T cells / number of infiltrating CD8+ T cells / number of infiltrating CD11c+ dendritic cells / number of infiltrating F4/80+ macrophages / number of infiltrating NK1.1+ natural killer cells: POD 7, compared to untreated AR
Experimental: as §1, §2
Fluorescein isothiocyanate (FITC), phycoerythin (PE), or allophycocyanin-conjugated mAbs specific for mouse CD4 (GK1.5), CD8a (53-6.7), F4/80 (BM8), B220 (RA3-6B2), Gr1 (RB6-8C5), CD11c (N418), NK1.1 (PK136), CD45 (30-F11), and their isotype controls were purchased from BD Biosciences (San Jose, Calif.), eBioscience (San Diego, Calif.), or BioLegend (San Diego, Calif.). Immediately after graft explantation at day 7 post transplantation, one third of the cardiac allograft was homogenized in RPMI 1640 media with 2 mg/mL Collagenase D (Worthington Bio) and 10% FCS for 2 h at RT. Cells were first incubated with normal hamster serum, normal mouse serum (Jackson ImmunoResearch), and 5 μg/ml anti-CD16/32 mAb (2.4G2; BD Bioscience), then stained with FITC-, PE-, and APC-conjugated mAbs for 30 min at 4° C. To exclude the dead cells, 7-Amino-Actinomycin D (BD Bioscience) was added and incubated for 10 minutes before analysis. Expression of markers was determined by FACS Calibur (BD Bioscience) and FlowJo software (Tree Star).

CRM genes = assay: Transcriptional analysis of mouse heart allografts (microarray with IPA pathway analysis, Q-PCR of CRM genes); type: in vivo; details: treatment group against untreated AR group
Experimental: We performed functional pathway analysis using Pathway-Express (PE). We used meta effect-size as fold change in PE to identify significant pathways. We used FDR<0.1 as a threshold for identifying significant pathways. We performed network analysis using IPA with option to only include “direct relationship” in order to avoid spurious connections due to “indirect relations”.
QRT-PCR for the CIRM module genes in mouse allografts was performed using a high-throughput RT-PCR instrument (BioMark; Fluidigm, San Francisco, Calif.). […] Data was analyzed using the BioMark RT-PCR Analysis Software Version 2.0. Using the delta Ct method, gene expression in each sample was calculated relative to the expression in a universal RNA sample (human universal RNA, Stratagene, CA). […]
For whole mouse genome expression analysis, Agilent Whole Mouse Genome 4×44K 60mer oligonucleotide arrays (G2519F, Agilent Technologies, Palo Alto, Calif.) were used. […] After purification, using the RNeasy mini kit (Qiagen), cRNA yield and Cy incorporation efficiency (specific activity) into the cRNA were determined using a NanoDrop Spectrophotometer (NanoDrop Technologies). cRNAs showing a yield >825 ng and a specific activity of 8-20 pmol/μg were selected for further processing. […]

INPP5D = details: van Leuven et al., 2010; cited from earlier work

Row | Structure (SMILES) | allograft survival compared to untreated AR [1] | Median survival [1] [days] | number of infiltrating cells (immunohistochemistry) [2] | number of infiltrating B220+ B cells compared to cyclosporine [3] | number of CD45+ infiltrating cells [3] | number of infiltrating B220+ B cells [3] | number of infiltrating CD4+ T cells [3] | number of infiltrating CD8+ T cells [3] | number of infiltrating CD11c+ dendritic cells [3] | number of infiltrating F4/80+ macrophages [3] | number of infiltrating NK1.1+ natural killer cells [3] | pathways affected (IPA pathway analysis of down-regulated genes) (CRM genes) | reduction of expression of INPP5D (INPP5D) | hazard ratio for graft survival ([1]; Cox-proportional hazard analysis, treated compared to untreated AR) | number of infiltrating cells (immunohistochemistry) relative to cyclosporine ([2]; POD 7, compared to treatment with cyclosporine (p>0.05))
1 | CC(C)c1c(C(=O)Nc2ccccc2)c(-c2ccccc2)c(-c2ccc(F)cc2)n1CC[C@@H](O)C[C@@H](O)CC(=O)O [atorvastatin] | significantly extended allograft survival | 17 | significantly reduced; also recorded: fewer infiltrating cells | reduced | significantly reduced | significantly reduced | reduced | reduced | significantly reduced | significantly reduced | significantly reduced | monocyte- and macrophage-related pathways |  |  | 
2 | COc1c(C)c2c(c(O)c1C/C=C(\C)CCC(=O)OCCN1CCOCC1)C(=O)OC2 [Mycophenolate mofetil] |  |  |  |  |  |  |  |  |  |  |  |  | more than 2 fold |  | 
3 | Cc1nc(Nc2ncc(C(=O)Nc3c(C)cccc3Cl)s2)cc(N2CCN(CCO)CC2)n1 [dasatinib] | significantly extended allograft survival | 24.5 | significantly reduced; also recorded: fewer infiltrating cells | reduced | significantly reduced | significantly reduced | reduced | reduced | significantly reduced | significantly reduced | significantly reduced | cell cycle-related pathways |  | 66.26 | equivalent
